Experimental data taken from the supplement of paper PMC7840683.
± gives the standard deviation of the averaged measurements.

Test system: HepaRG
Test: LDH release cytotoxicity, % of total lysis control; higher = more cytotoxic
Details: 48 h
In short: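 Single-lot HepaRG cells in collagen I-coated 96-well plates were treated for 48 h in serum-free induction medium containing 0.5% DMSO with test chemicals in eight-point half-log series up to 100 µM. For total lysis, wells received 0.1% Triton X. LDH in 50 µL spent medium was assayed by resorufin fluorescence with CytoTox-ONE. Percent cytotoxicity was normalized to the on-plate vehicle and total lysis controls, with duplicates averaged.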

Row | Compound | LDH release cytotoxicity (0.03162 µM) [%] | LDH release cytotoxicity (0.1 µM) [%] | LDH release cytotoxicity (0.3162278 µM) [%] | LDH release cytotoxicity (1 µM) [%] | LDH release cytotoxicity (3.16228 µM) [%] | LDH release cytotoxicity (10 µM) [%] | LDH release cytotoxicity (31.6228 µM) [%] | LDH release cytotoxicity (100 µM) [%] | other results
1 | CC(=O)NC1(c2cccc(F)c2)CCN(CCC2(c3ccc(Cl)c(Cl)c3)CN(c3ccccc3)C(=O)CO2)CC1 (stereo unspecified) | -0.672 ± 1.2 | -0.672 ± 0.82 | -0.643 ± 0.17 | -0.552 ± 0.44 | -0.767 ± 0.35 | -0.38 ± 0.15 | 0.499 ± 0.37 | 3.41 ± 1.2 | 
2 | CC(C)(O)c1ccc(CNC(=O)c2cccnc2Oc2ccc3nonc3c2)cc1 | -0.138 ± 0.4 | -0.0235 ± 1.2 | -1.43 ± 0.089 | -1.1 ± 0.77 | -0.724 ± 0.6 | -0.975 ± 0.052 | -1.98 ± 0.84 | -2.05 ± 0.18 | 
3 | CC(C)(O)c1coc(S(=O)(=O)NC(=O)Nc2c3c(cc4c2CCC4)CCC3)c1 | -0.467 ± 0.54 | -0.342 ± 0.93 | -0.339 ± 0.74 | 0.236 ± 0.21 | 0.788 ± 0.39 | 0.179 ± 0.27 | 0.394 ± 0.043 | 1.465 ± 0.0083 | 
4 | CC(C)(O)c1cnn2c(-c3ccc(F)c(-c4c(F)cccc4C#N)c3)cnc2n1 | -0.882 ± 0.92 | -1.19 ± 0.31 | -1.7 ± 0.43 | -1.5 ± 1.5 | -1.51 ± 0.51 | -1.39 ± 0.59 | 1.16 ± 0.29 | 8.979 ± 0.087 | 
5 | CC(C)c1cccc(C(C)C)c1NC(=O)NS(=O)(=O)c1cc(C(C)(C)O)co1 | 0.635 ± 1.6 | 0.0343 ± 1.8 | -0.878 ± 0.1 | -1.57 ± 0.35 | -1.32 ± 0.93 | -1.29 ± 0.37 | -1.24 ± 1.1 | -0.335 ± 0.29 | 
6 | CC(C)CCCCCCCOC(=O)c1ccccc1C(=O)OCCCCCCCC(C)C | -1.32 ± 0.57 | -1.15 ± 0.18 | -1.36 ± 0.46 | -1.26 ± 0.61 | -0.979 ± 0.44 | -0.985 ± 0.6 | -0.631 ± 0.57 | 0.487 ± 0.66 | 
7 | CC(Cc1ccc(OCC(=O)O)cc1)NCC(O)c1csc(C(F)(F)F)n1 (stereo unspecified) | -1.76 ± 1.8 | -2.85 ± 0.47 | -1.56 ± 0.35 | -1.12 ± 0.24 | -1.22 ± 0.57 | -0.599 ± 0.77 | 0.839 ± 2.3 | 0.309 ± 0.77 | 
8 | Cc1nc(C)nc(N2CC(C)N(c3ccnc(C(C)O)n3)C(C)C2)n1 (stereo unspecified) |  |  |  |  |  |  |  |  | LDH release cytotoxicity (0.01581 µM): -1.17 ± 0.94%; LDH release cytotoxicity (0.05 µM): -0.963 ± 0.92%; LDH release cytotoxicity (0.1581139 µM): -1.7 ± 1%; LDH release cytotoxicity (0.5 µM): -1.95 ± 0.69%; LDH release cytotoxicity (1.5811388 µM): -0.835 ± 0.61%; LDH release cytotoxicity (5 µM): -1.01 ± 0.15%; LDH release cytotoxicity (15.8114 µM): -0.652 ± 0.091%; LDH release cytotoxicity (50 µM): 0.767 ± 0.63%
9 | Cc1c(-c2cccnc2)c2ccccc2n1CCCCC(=O)O | -1.92 ± 0.15 | -0.948 ± 0.94 | -2.28 ± 1.1 | -1.9 ± 1.2 | -1.67 ± 3.2 | -1.54 ± 2.1 | -1.64 ± 0.83 | 4.56 ± 1.8 | 
10 | Cc1[nH]nc2c1N=C(c1ccccc1Cl)c1cc([N+](=O)[O-])ccc1N2 | -0.496 ± 0.19 | -1.12 ± 0.7 | -0.522 ± 0.35 | 2.66 ± 0.69 | 5.42 ± 0.45 | 4.54 ± 0.36 | 7.8 ± 1.1 | 40.5 ± 3.8 | 
11 | Cc1cc(CCN2CCN(c3nsc4ccccc34)CC2)cc2c1NC(=O)CC2(C)C | -0.898 ± 0.3 | -1.13 ± 1.4 | -0.946 ± 0.34 | -0.828 ± 0.57 | -0.925 ± 0.38 | -1.14 ± 0.57 | -0.566 ± 0.6 | -0.469 ± 0.49 | 
12 | Cc1cc2c(cc1C(F)(F)F)N(C(=O)Nc1ccc(Oc3cccnc3C)nc1)CC2 |  |  |  |  |  |  |  |  | LDH release cytotoxicity (0.0295673 µM): -7.63 ± 1.1%; LDH release cytotoxicity (0.0935 µM): -7.9 ± 0.54%; LDH release cytotoxicity (0.295673 µM): -7.01 ± 1.2%; LDH release cytotoxicity (0.935 µM): -8.47 ± 0.3%; LDH release cytotoxicity (2.95673 µM): -7.66 ± 0.24%; LDH release cytotoxicity (9.35 µM): -6.19 ± 1%; LDH release cytotoxicity (29.5673 µM): 68.937 ± 0.005%; LDH release cytotoxicity (93.5 µM): 72.5 ± 1.1%
13 | Cc1ccc2oc(CN(Cc3ccccc3)C(=O)Nc3c(F)cc(F)cc3F)c(-c3ccc(Cl)cc3)c2c1 |  |  |  |  |  |  |  |  | LDH release cytotoxicity (0.0279862 µM): -1.59 ± 1.2%; LDH release cytotoxicity (0.0885 µM): -1.08 ± 0.43%; LDH release cytotoxicity (0.279862 µM): -1.56 ± 0.098%; LDH release cytotoxicity (0.885 µM): -1.22 ± 0.62%; LDH release cytotoxicity (2.7986157 µM): -1.44 ± 0.12%; LDH release cytotoxicity (8.85 µM): -1.09 ± 0.59%; LDH release cytotoxicity (27.9862 µM): -0.962 ± 0.17%; LDH release cytotoxicity (88.5 µM): 2.85 ± 1.8%
14 | Cc1nc(-c2ccccn2)ncc1C(=O)Nn1cc(C)c2cc(F)ccc21 |  |  |  |  |  |  |  |  | LDH release cytotoxicity (0.0295673 µM): -0.89 ± 0.73%; LDH release cytotoxicity (0.0935 µM): -1.26 ± 0.34%; LDH release cytotoxicity (0.295673 µM): -0.0753 ± 0.68%; LDH release cytotoxicity (0.935 µM): -1.71 ± 0.6%; LDH release cytotoxicity (2.95673 µM): -2.8 ± 0.042%; LDH release cytotoxicity (9.35 µM): -2.48 ± 0.043%; LDH release cytotoxicity (29.5673 µM): -2.73 ± 0.47%; LDH release cytotoxicity (93.5 µM): -1.5 ± 0.84%
15 | Cc1nc(-c2ccc3c(c2)CCN(CCC2CCC(NC(=O)C=Cc4ccc(F)cc4)CC2)CC3)no1 (stereo unspecified) | 0.287 ± 2.3 | -0.381 ± 0.15 | -0.128 ± 1.3 | -0.7917 ± 0.0065 | -0.696 ± 0.47 | -0.292 ± 0.19 | -0.793 ± 0.21 | -0.791 ± 0.54 | 
16 | Cc1nccn1-c1ccc(Sc2cccc(C3(C(N)=O)CCOCC3)c2)cc1 | -2.79 ± 0.052 | -3.28 ± 1.4 | -2.87 ± 1 | -3.4 ± 0.34 | -2.44 ± 0.034 | 7.65 ± 1.9 | 31.9 ± 0.88 | 42.52 ± 0.32 | 
17 | CCC(=CC(N=O)C(N)=O)C(C)[N+](=O)[O-] (stereo unspecified) | -0.841 ± 0.13 | -1.13 ± 0.46 | -0.143 ± 1 | -0.487 ± 0.72 | -0.165 ± 0.14 | 0.0592 ± 0.5 | 0.411 ± 0.23 | 1.12 ± 0.8 | 
